# pIC50: −log10 of the molar value.
# Biological target: T1, IGF-1R (Homo sapiens, UniProt P08069)
# T1 construct: expressed in transfected cells
# Assay: Example B-1: IGF-1R Assay (PC3 cells stimulated with IGF1, AlphaLISA on cell lysates)
# Format: cell-based
# Details: compound two hours, IGF1 200 ng/mL for 30 min, read-out: IC50, Biological Activity against IGF-1R (Table B1)
# Summary of the method: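 PC3 cells serum-starved 2 h, treated 2 h with 3-fold serially diluted compound, then stimulated 30 min with IGF1 (200 ng/mL final). Lysates analysed by AlphaLISA; % inhibition calculated relative to vehicle and EC80 controls, IC50 derived.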
# T1 sequence (P08069 31-1367): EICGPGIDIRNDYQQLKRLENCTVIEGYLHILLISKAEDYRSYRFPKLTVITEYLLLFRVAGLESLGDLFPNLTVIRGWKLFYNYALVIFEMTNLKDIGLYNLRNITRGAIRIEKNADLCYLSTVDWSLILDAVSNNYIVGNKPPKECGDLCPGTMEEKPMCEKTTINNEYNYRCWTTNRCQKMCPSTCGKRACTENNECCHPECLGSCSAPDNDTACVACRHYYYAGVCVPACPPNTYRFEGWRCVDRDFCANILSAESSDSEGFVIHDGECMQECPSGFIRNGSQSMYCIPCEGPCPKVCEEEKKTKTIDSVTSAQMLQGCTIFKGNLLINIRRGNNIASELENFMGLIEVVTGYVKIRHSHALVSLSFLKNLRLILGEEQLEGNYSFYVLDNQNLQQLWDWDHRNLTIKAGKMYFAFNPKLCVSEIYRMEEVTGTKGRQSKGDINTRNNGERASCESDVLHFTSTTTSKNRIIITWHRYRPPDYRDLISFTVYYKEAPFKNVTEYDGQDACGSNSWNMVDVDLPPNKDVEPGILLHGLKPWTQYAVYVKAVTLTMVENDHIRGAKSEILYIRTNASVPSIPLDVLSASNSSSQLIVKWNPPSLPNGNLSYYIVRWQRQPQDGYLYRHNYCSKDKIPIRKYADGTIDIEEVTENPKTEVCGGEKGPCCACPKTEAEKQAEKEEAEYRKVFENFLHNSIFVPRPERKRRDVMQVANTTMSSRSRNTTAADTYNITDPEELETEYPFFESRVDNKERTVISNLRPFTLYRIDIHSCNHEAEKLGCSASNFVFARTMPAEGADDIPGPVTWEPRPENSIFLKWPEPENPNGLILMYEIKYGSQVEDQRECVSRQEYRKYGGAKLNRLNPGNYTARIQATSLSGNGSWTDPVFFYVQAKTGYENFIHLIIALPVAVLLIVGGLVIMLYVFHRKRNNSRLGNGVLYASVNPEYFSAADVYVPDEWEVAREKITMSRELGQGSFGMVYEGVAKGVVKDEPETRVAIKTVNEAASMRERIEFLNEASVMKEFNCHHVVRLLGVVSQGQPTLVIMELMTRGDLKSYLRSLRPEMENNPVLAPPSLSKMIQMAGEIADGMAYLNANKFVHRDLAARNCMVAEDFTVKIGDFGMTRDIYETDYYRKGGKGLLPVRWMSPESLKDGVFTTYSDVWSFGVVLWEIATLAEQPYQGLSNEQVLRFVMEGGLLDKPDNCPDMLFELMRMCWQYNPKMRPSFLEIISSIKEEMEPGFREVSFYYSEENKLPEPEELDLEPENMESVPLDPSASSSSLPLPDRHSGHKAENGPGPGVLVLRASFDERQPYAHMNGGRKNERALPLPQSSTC
row,Structure (SMILES),pIC50
1,"Nc1cc(CN2C(=O)N(c3ccc(SC(F)(F)F)cc3)C(=O)[C@@H]2C2CCCCC2)ccn1 [Compound 296, (S)-1-((2-aminopyridin-4-yl)methyl)-5-cyclohexyl-3-(4-((trifluoromethyl)thio)phenyl)imidazolidine-2,4-dione]",< 5.00
2,"CC(C)[C@H]1C(=O)N(c2ccc(S(=O)(=O)C(F)(F)F)cc2)C(=O)N1Cc1ccnc(N)c1 [Compound 300, (S)-1-((2-aminopyridin-4-yl)methyl)-5-isopropyl-3-(4-((trifluoromethyl)sulfonyl)phenyl)imidazolidine-2,4-dione]",5.00 to 5.70
3,"Cn1cc(CNc2cc(CN3C(=O)N(c4ccc(SC(F)(F)F)cc4)C(=O)C3(C)C)ccn2)cn1 [Compound 301, 5,5-dimethyl-1-((2-(((1-methyl-1H-pyrazol-4-yl)methyl)amino)pyridin-4-yl)methyl)-3-(4-((trifluoromethyl)thio)phenyl)imidazolidine-2,4-dione]",≥ 6.30
4,"CC1(C)C(=O)N(c2ccc(SC(F)(F)F)cc2)C(=O)N1Cc1ccnc(NC(=O)NC2CCOC2)c1 (centres unmarked) [Compound 303, 1-(4-((5,5-dimethyl-2,4-dioxo-3-(4-((trifluoromethyl)thio)phenyl)imidazolidin-1-yl)methyl)pyridin-2-yl)-3-(tetrahydrofuran-3-yl)urea]",≥ 6.30
5,"CC1(C)C(=O)N(c2ccc(SC(F)(F)F)cc2)C(=O)N1Cc1ccnc(NC(=O)NC23CCC(CC2)C3)c1 [Compound 304, 1-(bicyclo[2.2.1]heptan-1-yl)-3-(4-((5,5-dimethyl-2,4-dioxo-3-(4-((trifluoromethyl)thio)phenyl)imidazolidin-1-yl)methyl)pyridin-2-yl)urea]",5.70 to 6.30
6,"CC1(C)C(=O)N(c2ccc(SC(F)(F)F)cc2)C(=O)N1Cc1ccnc(NC(=O)NC2CCOCC2)c1 [Compound 306, 1-(4-((5,5-dimethyl-2,4-dioxo-3-(4-((trifluoromethyl)thio)phenyl)imidazolidin-1-yl)methyl)pyridin-2-yl)-3-(tetrahydro-2H-pyran-4-yl)urea]",≥ 6.30
7,"CC1(C)C(=O)N(c2ccc(SC(F)(F)F)cc2)C(=O)N1Cc1ccnc(NC(=O)NC2CCN(CC(F)(F)F)CC2)c1 [Compound 307, 1-(4-((5,5-dimethyl-2,4-dioxo-3-(4-((trifluoromethyl)thio)phenyl)imidazolidin-1-yl)methyl)pyridin-2-yl)-3-(1-(2,2,2-trifluoroethyl)piperidin-4-yl)urea]",≥ 6.30
8,"CC1(C)C(=O)N(c2ccc(SC(F)(F)F)cc2)C(=O)N1Cc1ccnc(NC(=O)NC2COC2)c1 [Compound 308, 1-(4-((5,5-dimethyl-2,4-dioxo-3-(4-((trifluoromethyl)thio)phenyl)imidazolidin-1-yl)methyl)pyridin-2-yl)-3-(oxetan-3-yl)urea]",≥ 6.30
9,"CC1(C)C(=O)N(c2ccc(SC(F)(F)F)cc2)C(=O)N1Cc1ccnc(NCC(F)(F)F)c1 [Compound 313, 5,5-dimethyl-1-((2-((2,2,2-trifluoroethyl)amino)pyridin-4-yl)methyl)-3-(4-((trifluoromethyl)thio)phenyl) imidazolidine-2,4-dione]",5.70 to 6.30
10,"CC1(C)C(=O)N(c2ccc(SC(F)(F)F)cc2)C(=O)N1Cc1ccnc(NC2COC2)c1 [Compound 314, 5,5-dimethyl-1-((2-(oxetan-3-ylamino)pyridin-4-yl)methyl)-3-(4-((trifluoromethyl)thio)phenyl) imidazolidine-2,4-dione]",< 5.00
11,"CC1(C)C(=O)N(c2ccc(SC(F)(F)F)cc2)C(=O)N1Cc1ccnc(NCC(F)F)c1 [Compound 315, 1-((2-((2,2-difluoroethyl)amino)pyridin-4-yl)methyl)-5,5-dimethyl-3-(4-((trifluoromethyl)thio)phenyl) imidazolidine-2,4-dione]",≥ 6.30
12,"CN1CC(Nc2cc(CN3C(=O)N(c4ccc(C(C)(C)C)cc4)C(=O)C3(C)C)ccn2)C1 [Compound 345, 3-(4-(tert-butyl)phenyl)-5,5-dimethyl-1-((2-((1-methylazetidin-3-yl)amino)pyridin-4-yl)methyl)imidazolidine-2,4-dione]",5.70 to 6.30
13,"CC(C)(C)c1ccc(N2C(=O)N(Cc3ccnc(-c4ccccc4)c3)C(C)(C)C2=O)cc1 [Compound 346, 3-(4-(tert-butyl)phenyl)-5,5-dimethyl-1-((2-phenylpyridin-4-yl)methyl)imidazoline-2,4-dione]",5.70 to 6.30
14,"CN1CC(Oc2ccc(Nc3cc(CN4C(=O)N(c5ccc(SC(F)(F)F)cc5)C(=O)C4(C)C)ccn3)cc2)C1 [Compound 349, 5,5-dimethyl-1-((2-((4-((1-methylazetidin-3-yl)oxy)phenyl)amino)pyridin-4-yl)methyl)-3-(4-((trifluoromethyl)thio)phenyl) imidazolidine-2,4-dione]",≥ 6.30
15,"COc1cc(NC(=O)Nc2cc(CN3C(=O)N(c4ccc(SC(F)(F)F)cc4)C(=O)C3(C)C)ccn2)ccc1O[C@H]1C[C@@H](N(C)C)C1 [Compound 351, 1-(4-((5,5-dimethyl-2,4-dioxo-3-(4-((trifluoromethyl)thio)phenyl)imidazolidin-1-yl)methyl)pyridin-2-yl)-3-(4-((1s,3s)-3-(dimethylamino)cyclobutoxy)-3-methoxyphenyl)urea]",≥ 6.30
16,"Cc1ccncc1Nc1cc(CN2C(=O)N(c3ccc(SC(F)(F)F)cc3)C(=O)C2(C)C)ccn1 [Compound 358, 5,5-dimethyl-1-((2-((4-methylpyridin-3-yl)amino)pyridin-4-yl)methyl)-3-(4-((trifluoromethyl)thio)phenyl) imidazolidine-2,4-dione]",≥ 6.30

# Results, then the molecule that gave them:
row,pIC50,Structure (SMILES)
1,5.00 to 5.70,"CC(C)[C@@H]1C(=O)N(c2ccc(SC(F)(F)F)cc2)C(=O)N1Cc1ccnc(N)c1 [Compound 295, (R)-1-((2-aminopyridin-4-yl)methyl)-5-isopropyl-3-(4-((trifluoromethyl)thio)phenyl)imidazolidine-2,4-dione]"
2,≥ 6.30,"CCC1(C)C(=O)N(c2ccc(SC(F)(F)F)cc2)C(=O)N1Cc1ccnc(N)c1 (centres unmarked) [Compound 297, 1-((2-aminopyridin-4-yl)methyl)-5-ethyl-5-methyl-3-(4-((trifluoromethyl)thio)phenyl)imidazolidine-2,4-dione]"
3,≥ 6.30,"CC1(C)C(=O)N(c2ccc(SC(F)(F)F)cc2)C(=O)N1Cc1ccnc(NC(=O)C2CC3(CNC3)C2)c1 [Compound 302, N-(4-((5,5-dimethyl-2,4-dioxo-3-(4-((trifluoromethyl)thio)phenyl)imidazolidin-1-yl)methyl)pyridin-2-yl)-2-azaspiro[3.3]heptane-6-carboxamide]"
4,5.00 to 5.70,"CC1(C)C(=O)N(c2ccc(SC(F)(F)F)cc2)C(=O)N1Cc1ccnc(NC(=O)C2NCC23CCCCC3)c1 (centres unmarked) [Compound 305, N-(4-((5,5-dimethyl-2,4-dioxo-3-(4-((trifluoromethyl)thio)phenyl)imidazolidin-1-yl)methyl)pyridin-2-yl)-2-azaspiro[3.5]nonane-1-carboxamide]"
5,≥ 6.30,"CN1CCC(NC(=O)Nc2cc(CN3C(=O)N(c4ccc(SC(F)(F)F)cc4)C(=O)C3(C)C)ccn2)CC1 [Compound 309, 1-(4-((5,5-dimethyl-2,4-dioxo-3-(4-((trifluoromethyl)thio)phenyl)imidazolidin-1-yl)methyl)pyridin-2-yl)-3-(1-methylpiperidin-4-yl)urea]"
6,≥ 6.30,"CC1(C)C(=O)N(c2ccc(SC(F)(F)F)cc2)C(=O)N1Cc1ccnc(NCC2CC2)c1 [Compound 311, 1-((2-((cyclopropylmethyl)amino)pyridin-4-yl)methyl)-5,5-dimethyl-3-(4-((trifluoromethyl)thio)phenyl) imidazolidine-2,4-dione]"
7,5.70 to 6.30,"CC1(C)C(=O)N(c2ccc(SC(F)(F)F)cc2)C(=O)N1Cc1ccnc(NCc2ncc[nH]2)c1 [Compound 312, 1-((2-(((1H-imidazol-2-yl)methyl)amino)pyridin-4-yl)methyl)-5,5-dimethyl-3-(4-((trifluoromethyl)thio)phenyl) imidazolidine-2,4-dione]"
8,≥ 6.30,"CC(C)(C)c1ccc(N2C(=O)N(Cc3ccnc(-c4ccn[nH]4)c3)C(C)(C)C2=O)cc1 [Compound 347, 1-((2-(1H-pyrazol-5-yl)pyridin-4-yl)methyl)-3-(4-(tert-butyl)phenyl)-5,5-dimethylimidazoline-2,4-dione]"
9,≥ 6.30,"CN(C)CC(=O)Nc1cc(CN2C(=O)N(c3ccc(SC(F)(F)F)cc3)C(=O)C2(C)C)ccn1 [Compound 348, N-(4-((5,5-dimethyl-2,4-dioxo-3-(4-((trifluoromethyl)thio)phenyl)imidazolidin-1-yl)methyl)pyridin-2-yl)-2-(dimethylamino)acetamide]"
10,≥ 6.30,"Cn1cc(NC(=O)Nc2cc(CN3C(=O)N(c4ccc(SC(F)(F)F)cc4)C(=O)C3(C)C)ccn2)cn1 [Compound 350, 1-(4-((5,5-dimethyl-2,4-dioxo-3-(4-((trifluoromethyl)thio)phenyl)imidazolidin-1-yl)methyl)pyridin-2-yl)-3-(1-methyl-1H-pyrazol-4-yl)urea]"
11,≥ 6.30,"CC1(C)C(=O)N(c2ccc(SC(F)(F)F)cc2)C(=O)N1Cc1ccnc(Nc2ncc[nH]2)c1 [Compound 352, 1-((2-((1H-imidazol-2-yl)amino)pyridin-4-yl)methyl)-5,5-dimethyl-3-(4-((trifluoromethyl)thio)phenyl) imidazolidine-2,4-dione]"
12,≥ 6.30,"CN(C)C(=O)c1cncc(Nc2cc(CN3C(=O)N(c4ccc(SC(F)(F)F)cc4)C(=O)C3(C)C)ccn2)c1 [Compound 359, 5-((4-((5,5-dimethyl-2,4-dioxo-3-(4-((trifluoromethyl)thio)phenyl)imidazolidin-1-yl)methyl)pyridin-2-yl)amino)-N,N-dimethylnicotinamide]"
13,≥ 6.30,"CC1(C)C(=O)N(c2ccc(SC(F)(F)F)cc2)C(=O)N1Cc1ccnc(NC(=O)c2cccnc2)c1 [Compound 360, N-(4-((5,5-dimethyl-2,4-dioxo-3-(4-((trifluoromethyl)thio)phenyl)imidazolidin-1-yl)methyl)pyridin-2-yl)nicotinamide]"

# Reference: patent publication US20250145585A1, “HETEROCYCLIC INHIBITORS OF IGF-1R FOR TREATMENT OF DISEASE” (HORIZON THERAPEUTICS IRELAND DAC, priority 2023, published 2025)
